We go through 26 compounds from US20150183791A1, “IMIDAZO[1,2-b]PYRIDAZINE-BASED COMPOUNDS, COMPOSITIONS COMPRISING THEM, AND METHODS OF THEIR USE” (LEXICON PHARMACEUTICALS, INC., priority 2013, published 2015).

The structures appear in SMILES notation.

Sequence of AAK1 (full-length human protein) (Q2M2I8 1-863 isoform Q2M2I8-2): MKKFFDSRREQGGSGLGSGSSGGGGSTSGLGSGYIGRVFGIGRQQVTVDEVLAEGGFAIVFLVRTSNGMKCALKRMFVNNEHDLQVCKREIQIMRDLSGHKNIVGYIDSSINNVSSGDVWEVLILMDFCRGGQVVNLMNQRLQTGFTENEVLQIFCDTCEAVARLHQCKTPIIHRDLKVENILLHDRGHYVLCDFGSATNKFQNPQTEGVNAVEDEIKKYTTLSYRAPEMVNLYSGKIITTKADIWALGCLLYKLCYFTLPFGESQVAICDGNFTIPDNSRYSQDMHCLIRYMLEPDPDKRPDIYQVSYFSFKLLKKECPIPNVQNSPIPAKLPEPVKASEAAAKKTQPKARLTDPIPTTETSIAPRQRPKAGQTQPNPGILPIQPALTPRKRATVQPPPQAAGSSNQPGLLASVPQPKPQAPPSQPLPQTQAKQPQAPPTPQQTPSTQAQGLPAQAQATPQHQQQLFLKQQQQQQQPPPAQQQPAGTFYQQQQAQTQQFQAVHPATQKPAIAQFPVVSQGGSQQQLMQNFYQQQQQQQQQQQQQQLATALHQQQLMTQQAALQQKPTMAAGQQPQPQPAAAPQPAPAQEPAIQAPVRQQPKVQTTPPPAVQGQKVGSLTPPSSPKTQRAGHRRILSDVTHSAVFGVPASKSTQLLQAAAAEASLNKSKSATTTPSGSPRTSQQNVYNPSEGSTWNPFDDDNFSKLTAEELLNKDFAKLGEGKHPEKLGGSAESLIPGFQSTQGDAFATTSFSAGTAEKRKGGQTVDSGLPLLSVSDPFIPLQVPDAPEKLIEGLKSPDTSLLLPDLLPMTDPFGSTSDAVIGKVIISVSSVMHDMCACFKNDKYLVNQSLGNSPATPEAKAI

The target of the first experiment is T1, AAK1 (full length human) transfected with Flag/AP2MI in HEK293F cells; phospho-mu2 (Homo sapiens, UniProt Q2M2I8).
T1 construct: HA; expressed in transfected cells; host or cells: HEK293F
T1 sequence (Q2M2I8 1-863 isoform Q2M2I8-2): as above
Nature of the experiment: HEK281 cell-based assay. The note with it: HEK293F cells transfected with human AAK1 and AP2M1, 3 hours with compound, phospho-mu2 Western blot normalized to total Mu2. As for the experimental part: HEK293F cells were cultured in media containing DMEM (Gibco, cat. #11965), 10% FBS (SAFC Biosciences, cat. #12103C), 1×GPS (glutamine, penicillin and streptomycin). On day one, cells were plated on a 10 cm dish so that they are ˜80% confluent at time of transfection. Roughly 12 million cells were in a 10 cm dish at time of transfection. On day two, each dish was transfected with 48 ug DNA and 144 ul Lipofectamine 2000 (Invitrogen, cat.#11668-019). The DNA was comprised of a mixture (per 10 cm dish) containing 3 ug AAK1/HA/pIRES (full length human, NCBI accession no. NP_055726.2), 45 μg Flag/AP2MI/pcDNA (full length human), and 1.5 ml OPTI-MEM. The Lipofectamine 2000 is made up of a mixture (per 10 cm dish) containing 144 μl Lipofectamine 2000 and 1.5 ml OPTI-MEM. Each mixture was transferred to individual 15 ml tubes and incubated at room temperature for 5 minutes, and then the two mixes were combined and incubated at room temperature for 20 minutes. Growth media was then aspirated from each 10 cm plate and replaced with 10 ml of DMEM+10% FBS (no GPS). Finally, 3 ml DNA/Lipofectamine mix was added to each 10 cm dish and mix gently followed by incubate of plate overnight at 37° C. and 5% CO2.
On day three, compounds were diluted in 100% DMSO at 1000× final concentration, followed by 3-fold serial dilutions for a total of 5 concentrations tested. Four compounds were tested per 10 cm dish. One ul of each compound dilution was then pipetted into a deep-well, 96-well plate, followed by addition of 500 μl DMEM+0.5% FBS into each well for a 2× final concentration of each compound. Cells were resuspended in a 10 cm dish by simple pipetting (HEK293 cells come off the plate that easy at this point) and then transferred to a 50 ml conical tube and pelleted by centrifugation at 1000 rpm for 5 min. Cell pellets were then resuspended in 2.75 ml DMEM+0.5% FBS per 10 cm dish and 100 μl of cell suspension transferred into each well of 96-well TC plate. Finally, 100 μl of 2× compound diluted in DMEM+0.5% FBS was then added into wells containing cell suspension for a 1× final concentration. Plates were then incubated at 37° C. and 5% CO2 for 3 hours followed by transferring of cell suspensions from each well into 12-tube PCR strips. The PCR strips were spun in a tip rack at 1000 rpm for 5 minutes to pellet cells and media was then removed by pipetting without disturbing the cell pellet.
To prepare for Western Blot analysis, cell pellets were resuspend in 40 ul 1×LDS-PAGE sample buffer (Invitrogen, cat.# NP0008) +2× Halt phophatase and protease inhibitor cocktail (Thermo Scientific, cat.#1861284), followed by sonicating each with microtip sonicator set at 5 for 8-10 seconds. Five ul of 10× NuPage Sample Reducing Agent (with […]) was to each sample followed by heat denaturing at 70 C for 10 min on PCR machine. A total of 10 μl per sample was loaded into each lane of a 4-20% Tris-Glycine Criterion 26-well gel (Biorad, cat.#345-0034) for the phospho-mu2 blot and 10 μl per lane in a 4-12% Bis-Tris (+MES buffer) NuPAGE 26-well gel (Invitrogen, cat.# WG1403BX10) for the mu2 blot. For controls, 2 ng of phospho-mu2 or 20 ng mu2/Flag proteins were loaded in the last well of each gel. After SDS-PAGE, samples on each gel were transferred to PVDF membrane using an iBlot and membranes were blocked for one hour in TBST+5% milk, followed by wash 3× for 5-10 min with TBST. Criterion gels were probed with rabbit anti-phospho-mu2 (1:5000; a rabbit polyclonal antibody produced by New England Peptide and affinity purified at Lexicon) in TBST+5% BSA, whereas, NuPAGE gels were probed with mouse anti-Flag (1:500; Sigma, cat.# F1804) in TBST+5% milk, and these primary antibodies were incubated overnight at 4° C. on a rocker. […]
On the technique in general: A western blot detects proteins with antibodies after separation by electrophoresis.
Regarding `CC(=O)c1cccc(-c2ccc3ncc(Br)n3n2)c1` [1-(3-(3-Bromoimidazo[1,2-b]pyridazin-6-yl)phenyl)ethanone], the “CBA IC50” value is given as “* (“*” means less than or equal to 1.0 μM)”.

For another experiment, the target named is AAK1 (full-length human protein) (Homo sapiens, UniProt Q2M2I8). Briefly: P81 filter plate assay. It counts as biochemical. The settings on record: 0.2 nM-scale full-length human AAK1, Mu2 substrate, 33P-ATP, one hour at room temperature; class symbols. How it is done:
Compounds were serially diluted into a Labcyte LDV plate (Labcyte, cat# LP-0200) using a Mutiprobe (PerkinElmer) and Biomek FX (Beckman Coulter) so that the highest compound concentration was at 96 μM. Compounds were then pinged (75 nL per well) into a Greiner 384-well reaction plate (Greiner, #781076) using an ECHO 550 Liquid Handler (Labcyte). A total of 12 μl reaction buffer (IMAP buffer containing Tween and DTT, from Molecular Devices) was then added to each well of columns 1 and 13 for the negative controls and 12 μl of 2×AAK1 (0.2 nM full-length human protein, NCBI accession no. NP_055726.2) was added to the remaining wells. Enzyme was then pre-incubated with compound for 10 minutes at room temperature. Reactions were initiated upon Minitrak (PerkinElmer) addition of 12 μl substrate mix containing 2× Mu2 (0.2 μM, full length human protein), 2× cold ATP (2 μM), and 1.3 μCi of hot ^33P-ATP. Reactions proceeded for one hour at room temperature. Meanwhile, Millipore 384-well P81 filter plates (Millipore, catalog # MZPHN0 W10) were placed on a plate washer (Zoom ZW, from Titertek) and pre-wet with 50 μl 1% phosphoric acid. Kinase reactions were then stopped upon addition of 24 μl of 2% phosphoric acid to each well and the Minitrak was then used to transfer 40 μl from each well into the pre-wet Millipore 384-well P81 filter plates. Reaction mixtures were incubated for 10 minutes at room temperature in the P81 plates, followed by washing five times with 100 μl/well of 1% phosphoric acid using the Zoom filter washer. The bottom of each filter plate was sealed followed by addition of 20 μl Microscint 40 to each well, sealing the top of the plates with Flashplate cover, and then waiting one hour until reading on the TopCount (Perkin Elmer).
For `Cc1cnc2ccc(-c3ccn(CCC(C)(C)C)c(=O)c3)nn12` [1-(3,3-Dimethylbutyl)-4-(3-methylimidazo[1,2-b]pyridazin-6-yl)pyridin-2(1H)-one], the IC50 (as a rule, the concentration that inhibits the measured activity by half) was in the range of 10 to 100 nM.

For `COc1cnccc1-c1cnc2ccc(-c3cccc(C(=O)CCC(C)C)c3)nn12` [1-(3-(3-(3-Methoxypyridin-4-yl)imidazo[1,2-b]pyridazin-6-yl)phenyl)-4-methylpentan-1-one], the IC50 was ≤ 10 nM.

As for `Cc1cnc2ccc(-c3ccn(CCC(C)C)c(=O)c3)nn12` [1-Isopentyl-4-(3-methylimidazo[1,2-b]pyridazin-6-yl)pyridin-2(1H)-one], the IC50 was ≤ 10 nM.

`COc1nc(C)ccc1-c1cnc2ccc(-c3ccn(CCC(C)C)c(=O)c3)nn12` [1-isopentyl-4-(3-(2-methoxy-6-methylpyridin-3-yl)imidazo[1,2-b]pyridazin-6-yl)pyridin-2(1H)-one]: the concentration for half-maximal inhibition (IC50) is ≤ 10 nM.

Regarding `COc1ncccc1-c1cnc2ccc(-c3ccn(CCC(C)C)c(=O)c3)nn12` [1-isopentyl-4-(3-(2-methoxypyridin-3-yl)imidazo[1,2-b]pyridazin-6-yl)pyridin-2(1H)-one], the half-maximal inhibitory concentration (IC50) was ≤ 10 nM.

For `COc1ncccc1-c1cnc2ccc(-c3cnn(CC(C)(C)C)c3)nn12` [3-(2-Methoxypyridin-3-yl)-6-(1-neopentyl-1H-pyrazol-4-yl)imidazo[1,2-b]pyridazine], the IC50 was ≤ 10 nM.

As to `CC(C)CCn1cc(-c2ccc3ncc(Br)n3n2)cn1` [3-Bromo-6-(1-isopentyl-1H-pyrazol-4-yl)imidazo[1,2-b]pyridazine], the half-maximal inhibitory concentration (IC50) is ≤ 10 nM.

Take `CC(C)(C)Cn1cc(-c2ccc3ncc(Br)n3n2)cn1` [3-Bromo-6-(1-neopentyl-1H-pyrazol-4-yl)imidazo[1,2-b]pyridazine]: the IC50 was 10 to 100 nM.

In turn, `CC(C)(C)Cn1cc(-c2ccc3ncc(Cl)n3n2)cn1` [3-Chloro-6-(1-neopentyl-1H-pyrazol-4-yl)imidazo[1,2-b]pyridazine] yielded an IC50 of 10 to 100 nM.

As for `CCOc1ncccc1-c1cnc2ccc(-c3ccn(CCC(C)C)c(=O)c3)nn12` [4-(3-(2-Ethoxypyridin-3-yl)imidazo[1,2-b]pyridazin-6-yl)-1-isopentylpyridin-2(1H)-one], the IC50 was ≤ 10 nM.

Take `COc1ncc(F)cc1-c1cnc2ccc(-c3ccn(CCC(C)C)c(=O)c3)nn12` [4-(3-(5-Fluoro-2-methoxypyridin-3-yl)imidazo[1,2-b]pyridazin-6-yl)-1-isopentylpyridin-2(1H)-one]: the IC50 is ≤ 10 nM.

Regarding `CC(=O)c1cnc2ccc(-c3ccn(CCC(C)C)c(=O)c3)nn12` [4-(3-Acetylimidazo[1,2-b]pyridazin-6-yl)-1-isopentylpyridin-2(1H)-one], the concentration for half-maximal inhibition (IC50) was 10 to 100 nM.

Consider `CC(C)CCn1ccc(-c2ccc3ncc(Br)n3n2)cc1=O` [4-(3-Bromoimidazo[1,2-b]pyridazin-6-yl)-1-isopentylpyridin-2(1H)-one], for which the IC50 is ≤ 10 nM.

For `CC(C)CCn1ccc(-c2ccc3ncc(Cl)n3n2)cc1=O` [4-(3-Chloroimidazo[1,2-b]pyridazin-6-yl)-1-isopentylpyridin-2(1H)-one], the half-inhibitory concentration (IC50) is ≤ 10 nM.

On to `COc1ncccc1-c1cnc2ccc(-c3cnn(CCC(C)C)c3)nn12` [6-(1-Isopentyl-1H-pyrazol-4-yl)-3-(2-methoxypyridin-3-yl)imidazo[1,2-b]pyridazine], for which the IC50 was ≤ 10 nM.

Turning to `CC(C)CCn1cc(-c2ccc3nccn3n2)cn1` [6-(1-Isopentyl-1H-pyrazol-4-yl)imidazo[1,2-b]pyridazine], the IC50 is 100 to 1000 nM.

`COc1ncccc1-c1cnc2ccc(-c3ccn(C[C@@H](N)CC(C)C)c(=O)c3)nn12` [(S)-1-(2-Amino-4-methylpentyl)-4-(3-(2-methoxypyridin-3-yl)imidazo[1,2-b]pyridazin-6-yl)pyridin-2(1H)-one] registered an IC50 of 10 to 100 nM.

Regarding `CC(C)C[C@H](N)Cn1ccc(-c2ccc3ncc(Br)n3n2)cc1=O` [(S)-1-(2-Amino-4-methylpentyl)-4-(3-bromoimidazo[1,2-b]pyridazin-6-yl)pyridin-2(1H)-one], the IC50 lay in the range of 100 to 1000 nM.

`CC(C)C[C@H](N)Cn1ccc(-c2ccc3ncc(Cl)n3n2)cc1=O` [(S)-1-(2-Amino-4-methylpentyl)-4-(3-chloroimidazo[1,2-b]pyridazin-6-yl)pyridin-2(1H)-one] displayed an IC50 of 100 to 1000 nM.

Take `COc1ncccc1-c1cnc2ccc(-c3cnn(C(=O)OC(C)C)c3)nn12` [Isopropyl 4-(3-(2-methoxypyridin-3-yl)imidazo[1,2-b]pyridazin-6-yl)-1H-pyrazole-1-carboxylate]: the 50% inhibitory concentration (IC50) is ≤ 10 nM.

The experiment is the same for the next values; noted with them: same assay, given as numeric bound instead of class symbol.
Consider `CC(C)(C)Cn1cc(-c2ccc3nccn3n2)cn1` [6-(1-Neopentyl-1H-pyrazol-4-yl)imidazo[1,2-b]pyridazine], for which the IC50 was > 300 nM.

For `Cc1cnc2ccc(-c3ccn(C[C@@H](N)CC(C)C)c(=O)c3)nn12` [(S)-1-(2-Amino-4-methylpentyl)-4-(3-methylimidazo[1,2-b]pyridazin-6-yl)pyridin-2(1H)-one], the half-inhibitory concentration (IC50) is > 300 nM.

As for `CC(C)C[C@H](N)Cn1ccc(-c2ccc3nccn3n2)cc1=O` [(S)-1-(2-Amino-4-methylpentyl)-4-(imidazo[1,2-b]pyridazin-6-yl)pyridin-2(1H)-one], the half-inhibitory concentration (IC50) is > 300 nM.

For the compound `CC(C)C[C@@H](Cn1ccc(-c2ccc3nccn3n2)cc1=O)N1C(=O)c2ccccc2C1=O` [(S)-2-(1-(4-(Imidazo[1,2-b]pyridazin-6-yl)-2-oxopyridin-1(2H)-yl)-4-methylpentan-2-yl)isoindoline-1,3-dione], the concentration for half-maximal inhibition (IC50) was > 300 nM.

For `CC(C)OC(=O)n1cc(-c2ccc3nccn3n2)cn1` [Isopropyl 4-(imidazo[1,2-b]pyridazin-6-yl)-1H-pyrazole-1-carboxylate], the IC50 is > 300 nM.
